Data set [1] relates to acute brain slices exposed to 0-Mg. In words: late recurrent discharges in acute brain slices exposed to 0-Mg.
Data set [2] is described as follows: PK studies, brain and plasma levels by LC-MS/MS. It counts as in vivo, Mice. Particulars: 50 mg/kg SC. How it is done: PK studies. […] Plasma and brain samples were rapidly frozen on dry ice.
Drug accumulation in the brain was examined following SC injection (FIG. 4C; 50 mg/kg).

For data set [3], the system named is panel of 144 protein kinases. In words: panel of 144 protein kinases (SelectScreen; Thermofisher). It is filed as biochemical. To be noted: 144 protein kinases incl. PKC isoforms, OSR1, SPAK, WNK.
Details of data set [4]: species or system Mice. Particulars: in vivo.
The subject of data set [5] is neuronal cell death in the hippocampus. In words: neuronal cell death in the hippocampus, mice treated with Compound A and diazepam. It counts as in vivo. Particulars: Compound A and diazepam vs diazepam alone.
In data set [6] the target is T1, KCC2-S940A (Homo sapiens, UniProt Q9H2X9, S963A).
T1 construct: expressed in transfected cells; host or cells: HEK-293
T1 sequence (Q9H2X9 1-1116 isoform Q9H2X9-2 S940A): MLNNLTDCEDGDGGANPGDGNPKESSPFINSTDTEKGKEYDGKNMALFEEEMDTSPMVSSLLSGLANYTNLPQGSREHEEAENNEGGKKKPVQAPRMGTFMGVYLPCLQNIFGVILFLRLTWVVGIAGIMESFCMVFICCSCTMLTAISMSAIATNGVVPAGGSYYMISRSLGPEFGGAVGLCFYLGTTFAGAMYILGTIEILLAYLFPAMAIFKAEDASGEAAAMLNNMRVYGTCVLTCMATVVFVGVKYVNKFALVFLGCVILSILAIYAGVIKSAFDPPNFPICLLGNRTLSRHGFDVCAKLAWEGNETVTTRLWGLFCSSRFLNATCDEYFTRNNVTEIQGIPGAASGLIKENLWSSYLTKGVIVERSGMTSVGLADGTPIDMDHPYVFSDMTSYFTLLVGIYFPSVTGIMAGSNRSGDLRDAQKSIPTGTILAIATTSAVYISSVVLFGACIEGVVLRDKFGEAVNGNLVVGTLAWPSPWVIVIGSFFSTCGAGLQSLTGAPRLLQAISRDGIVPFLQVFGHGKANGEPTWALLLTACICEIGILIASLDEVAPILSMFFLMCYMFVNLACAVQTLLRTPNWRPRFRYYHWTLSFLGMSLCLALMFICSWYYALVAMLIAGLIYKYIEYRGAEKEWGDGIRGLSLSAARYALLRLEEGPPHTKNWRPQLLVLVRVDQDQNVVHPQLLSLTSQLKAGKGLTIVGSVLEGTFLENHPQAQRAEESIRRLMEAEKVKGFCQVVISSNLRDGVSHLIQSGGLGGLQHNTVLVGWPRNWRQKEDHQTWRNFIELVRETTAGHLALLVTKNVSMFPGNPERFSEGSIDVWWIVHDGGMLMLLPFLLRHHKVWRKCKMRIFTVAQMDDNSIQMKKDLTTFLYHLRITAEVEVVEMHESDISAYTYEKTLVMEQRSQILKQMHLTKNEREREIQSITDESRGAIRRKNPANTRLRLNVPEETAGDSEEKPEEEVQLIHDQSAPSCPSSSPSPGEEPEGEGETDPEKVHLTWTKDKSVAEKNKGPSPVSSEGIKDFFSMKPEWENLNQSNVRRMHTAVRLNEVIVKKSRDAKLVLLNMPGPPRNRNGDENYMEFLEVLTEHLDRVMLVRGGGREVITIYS
In words: Tl+ flux assay, HEK-293 cells expressing KCC2-S940A. It counts as cell-based. How it is done: FLIPR TI Flux assay. HEK-293 cells were washed with HBSS, and then incubated with loading buffer containing TI sensitive fluorescent dye (https://www.moleculardevices.com), 20 μM bumetanide 20 μM ouabain and 2.5 mM probenecid for 1 h at room temperature (RT) under control conditions or with drugs in the dark using a FlexStation 3 microplate reader (Molecular Devices) and imaged […] for 30 min. Stimulus buffer was added containing 5 mM K^+/0.5 mM Tl^+ and cells were imaged every 1.5 over a 190 second time course The initial rate Tl^+ uptake (Relative Fluorescence Units (RFU) per second) was determined following addition of the stimulus buffer as outlined previously (Conway et al., 2017, supra) (Lee et al., 2022, supra).
Several studies have shown that the activity and plasma membrane accumulation of KCC2 is potentiated via phosphorylation of S940, a process mediated by the activity of protein kinase C and protein phosphatase 1 (Lee et al., 2011, supra, Lee et al., J Biol Chem 282, 29777-29784 (2007); Moore et al., Proc. Natl. Acad. Sci. U.S.A 115, 10166-10171 (2018); Moore et al., Trends Neurosci. 40, 555-571 (2017); Silayeva et al., Proc. Natl. Acad. Sci. U.S.A 112, 3523-3528 (2015)). […] Compared to KCC2, effects on KCC3, KCC4, and NKCC1 were only seen at concentrations more than 35-fold that of KCC2 (>100 μM) (FIG. 1G).

In data set [7] the target is T2, KCC2 (Homo sapiens, UniProt Q9H2X9).
T2 construct: expressed in transfected cells; host or cells: HEK-293 (ATCC CRL-1573), transient transfection
T2 sequence (Q9H2X9 1-1116 isoform Q9H2X9-2): T1 sequence (Q9H2X9 1-1116 isoform Q9H2X9-2 S940A) with A940S
In words: cellular thermal shift assay (CETSA), HEK-293 cells expressing KCC2. It counts as binding. The procedure:
Determining if compounds in SSA directly interact with KCC2. This was tested using a cellular thermal shift assay (CETSA), which measures the ability of a drug to modify the thermal stability of its target in whole cells (Kawatkar et al., ACS Chem. Biol. 14, 1913-1920 (2019); Martinez et al., Sci Rep 8, 9472 (2018)).
2×10^6 transfected HEK-293 cells were incubated with 30 μM drug or vehicle for 90 min at 37° C. and then heated from 37-58° C. for 5 min. Cells were rapidly chilled to 25° C. and NP40 was added to a final concentration […] to snap freezing in liquid nitrogen. Following 5 freeze/thaw cycles lysates were centrifuged at 12,000×g to remove denatured proteins and associated cell debris.
Aliquots of HEK-293 cells expressing KCC2 were exposed to 30 μM SSA, heated from 37-55° C. The remaining level of soluble native KCC2 at each temperature was measured by immunoblotting and normalized to the level seen at 37° C. which was given a value of 1. […] This panel included protein kinase C isoforms, OSR1, SPAK (STK39) and with-no-lysine kinases (WNK), all of which phosphorylate KCC2 on multiple residues to indirectly modify its activity (Kahle et al., 2013, supra; Smalley et al., 2020, supra).

Positions count from the first letter of the chain named.

`C[C@@H]1CN(c2nc3c(c(Nc4ccc(C5CCCCC5)cc4)n2)COC3)CCO1` [Compound A, (R)—N-(4-cyclohexylphenyl)-2-(2-methylmorpholino)-5,7-dihydrofuro[3,4-d]pyrimidin-4-amine]: the “development of late recurrent discharges (LRDs)” value in data set [1] is “reduced”. In data set [2], the “accumulation in the brain at 30 min” value is “detected”, the “brain level 8 h later” value is listed as “maintained” and the “time of maximal concentration in the brain” value is 4 h. Also, the “activity of kinase panel” value in data set [3] was “did not modify the activity”. In data set [4], the “gross effects on mouse behavior” value is on record as “no gross effects on mouse behavior”. For the same molecule, the “neuronal cell death in the hippocampus” value in data set [5] was “significantly reduced”. Besides, the “activity of KCC2-S940A construct” value in data set [6] is given as “increased the activity”. Besides, the “direct binding to KCC2” value in data set [7] was “capable of directly binding to KCC2”.

These data come from patent US20260191875A1, “FUSED AMINO PYRIMIDINE COMPOUNDS FOR TREATMENT OF ADDICTION AND INSOMNIA” (Ovid Therapeutics Inc., priority 2024, published 2026).
